Experimental data from patent publication US20240294509A1, “PYRIDAZINONE COMPOUND AS PARP7 INHIBITOR” (Euregen Biopharma Co., Ltd., priority 2021, published 2024).
pIC50: −log10 of the molar value.

Columns and labels:
PARP1 = PARP1 (Homo sapiens (Human), UniProt P09874)
Protocol: (§5) Experimental Principle: The inhibitory effect of the test substance on the enzymatic activity of PARP1/7 is assessed by using an Enzyme-Linked Immunosorbent Assay (ELISA).
(§6) (1) Pre-coating: Add 100 μL of a PBS buffer (10 mM NaH2PO4, 10 mM Na2HPO4, 150 mM NaCl, pH 7.4) containing 20 g/mL of histone to each well of a 96-well plate, and incubate at 4° C. overnight.
(§7) (3) Add 5 μL of the test substance or solvent to each well.
(§8) (4) Add 20 μL of(PARP1 or PARP7 (50 ng/well), and incubate at 30° C. for 1 hour.
(§9) (5) Add 50 μL of streptavidin-HRP to the reaction mixture, and incubate at 30° C. for 30 minutes.
(§10) (6) Finally, add 100 μL of a citrate buffer containing H2O2 and luminol (0.1 M, pH 5.4), and measure the luminescent signal using a microplate reader (Molecular Devices SpectraMax M5).
(§11) (7) Calculate the inhibition rate of PARP1 or PARP7 enzyme activity as [(control group−treatment group)/control group]×10000. Fit the dose-response data with standard dilutions using Prism GraphPad software and calculate the concentration required to achieve 5000 inhibition of PARP1 or PARP7 enzyme activity (IC50).

PARP7 = PARP7 (Homo sapiens (Human), UniProt Q7Z3E1)
Protocol: as §5, §6, §7, §8, §9, §10, §11

NCI-H1373 cells = test: Inhibitory effect on the proliferation of NCI-H1373 cells (CellTiter-Glo); type: cell-based; conditions: Homo sapiens, 144 h, 6 days treatment
Excerpt: 1. Experimental Principle: NCI-H1373 cells are a type of lung adenocarcinoma cells that overexpress PARP7.
2. Experimental Materials: NCI-H1373 cells were obtained from Nanjing Cobioer Biosciences Co., Ltd. CellTiter-Glo® (cell viability chemiluminescent assay reagent) was purchased from Promega (Catalog No. G7571). RPMI-1640 medium was obtained from ATCC (Catalog No. 30-2001). RPMI-1640 medium, penicillin/streptomycin antibiotics were purchased from WISENT. Fetal bovine serum was obtained from Biosera. The Nivo multimode reader was procured from PerkinElmer.
3. Experimental Method: NCI-H1373 cells were seeded in a white 96-well plate with 80 μL of cell suspension per well, containing 3000 NCI-H1373 cells. The cell plate was incubated overnight in a carbon dioxide (CO2) incubator.
The test compounds were serially diluted 5-fold to the 9th concentration, ranging from 2 mmol/L to 5.12 nmol/L, for a duplicate assay. 78 μL of culture medium was added to the intermediate plate, and then, according to the corresponding positions, 2 μL of each gradient-diluted compound was transferred to the intermediate plate. After thorough mixing, 20 μL of the compound solution was transferred to the cell plate. The compound concentration range in the cell plate ranged from 10 μmol/L to 0.0256 nmol/L. The cell plate was incubated in a CO2 incubator for 6 days.
Another cell plate was prepared, and the signal values were read on the day of dosing to obtain the maximum value referred to as Max in the following equation for data analysis. 25 μL of cell viability chemiluminescent assay reagent was added to each well of this cell plate, and it was incubated at room temperature for 10 minutes to stabilize the luminescent signal. Readings were taken using a multimode reader.
After 6 days of treatment, 25 μL of cell viability chemiluminescent assay reagent was added to each well of the cell plate, and it was incubated at room temperature for 10 minutes to stabilize the luminescent signal. Readings were taken using a multimode reader.
The IC50 value was determined by four-parameter curve fitting (obtained by using the “log(inhibitor) vs. response—Variable slope” model in GraphPad Prism).

[1] = Metabolic stability in rat liver microsomes; type: in vitro ADME; conditions: pH 7.4, 1.00 μM compound, 0.5 mg/mL protein, read-out: intrinsic clearance, Clint
Protocol: (§1) 1. Experiment purpose: This study aims to determine the metabolic stability of selected compounds from the embodiments of the invention in liver microsomes of humans, dogs, monkeys, rats, and mice using the LC-MS/MS method.
(§2) Test compounds: The test drug is self-made from the example compounds of the present invention; Positive control compound RBN2397 purchased from Shanghai BioChemPartner Biotechnology Co., Ltd.
(§3) Liver microsomes obtained from Xenotech.
(§4) The incubation was carried out at 37° C. in a CO2 incubator. The reactions were terminated by adding 150 μL of cold acetonitrile at different time points (0, 5, 15, 30, and 45 minutes). The 96-well plate was shaken at 600 rpm for 10 minutes, followed by centrifugation at 6000 rpm for 15 minutes. The supernatant (80 μL) was mixed with 140 μL of pure water, and the remaining amount of the compound was determined using LC-MS/MS. The intrinsic clearance (Clint) was calculated using the formula Clint=k/liver microsomes protein concentration, where “k” is the linear regression slope of log compound remaining percentage against incubation time.

[2] = Pharmacokinetic properties in SD rats after single intravenous injection and oral administration; type: in vivo; conditions: SD male rats
Excerpt: 1. Test purpose: to determine the pharmacokinetic characteristics of some of the example compound of the present invention in SD rats after single intravenous injection(IV) and oral administration(PO) by LC-MS/MS method.
2. Test material: the test drug is self-made from the example compounds of the present invention; Positive control compound RBN2397 purchased from Shanghai BioChemPartner Biotechnology Co., Ltd. SD male rats were obtained from the Laboratory Animal Management Department of Shanghai Family Planning Research Institute. Animal production license number (SCXK (Shanghai) 2018-0006).
Preparation of 0.5% methyl cellulose: 5 g of methyl cellulose were weighed and dissolved in 1000 mL of purified water.
Preparation of oral formulation: A required amount of test compound was weighed and dissolved in 0.5% methyl cellulose solution to obtain a suspension or solution of 0.5 mg/mL or 1.0 mg/mL.
Preparation of intravenous injection formulation: A required amount of test compound was weighed, and dissolved in 0.5 mL of dimethyl sulfoxide to prepare a solution of 4 mg/mL. 0.25 mL of the above solution was added into 0.5 mL of polyethylene glycol 15 hydroxystearate (solutol) and 4.25 mL of physiological saline to obtain a solution of 0.2 mg/mL.
Administration: SD male rats were orally administered (PO) after fasting overnight, and fed 4 hours after administration.
Sample Collection: blood was collected through jugular vein or other suitable vein, and 0.2 mL of blood was collected at each time point. Samples were placed into tubes containing ethylenediamine tetraacetic acid dipotassium salt and kept on ice before centrifugation. Within 1 hour after blood collection, the blood samples were centrifuged at 2-8° C. and 6800 g for 6 minutes and stored at −80° C. The time point for blood collection was 0.083, 0.25, 0.5, 1, 2, 4, 8 and 24 hours after intravenous administration, and 0.25, 0.5, 1, 2, 4, 6, 8 and 24 hours after oral administration.
The intravenous dosage was 1 mg/kg, and the pharmacokinetic parameters for oral administration were standardized to a 1 mg/kg dose.

[3] = Metabolic stability in dog liver microsomes; type: in vitro ADME; conditions: pH 7.4, 1.00 μM compound, 0.5 mg/mL protein, read-out: intrinsic clearance, Clint
Protocol: as §1, §2, §3, §4

[4] = Metabolic stability in human liver microsomes; type: in vitro ADME; conditions: pH 7.4, 1.00 μM compound, 0.5 mg/mL protein, read-out: intrinsic clearance, Clint
Protocol: as §1, §2, §3, §4

[5] = rat, plasma, Intravenous injection, 1 mg/kg
[6] = rat, plasma, Oral gavage, standardized to a 1 mg/kg dose

Chain of PARP7 (Q7Z3E1 whole entry): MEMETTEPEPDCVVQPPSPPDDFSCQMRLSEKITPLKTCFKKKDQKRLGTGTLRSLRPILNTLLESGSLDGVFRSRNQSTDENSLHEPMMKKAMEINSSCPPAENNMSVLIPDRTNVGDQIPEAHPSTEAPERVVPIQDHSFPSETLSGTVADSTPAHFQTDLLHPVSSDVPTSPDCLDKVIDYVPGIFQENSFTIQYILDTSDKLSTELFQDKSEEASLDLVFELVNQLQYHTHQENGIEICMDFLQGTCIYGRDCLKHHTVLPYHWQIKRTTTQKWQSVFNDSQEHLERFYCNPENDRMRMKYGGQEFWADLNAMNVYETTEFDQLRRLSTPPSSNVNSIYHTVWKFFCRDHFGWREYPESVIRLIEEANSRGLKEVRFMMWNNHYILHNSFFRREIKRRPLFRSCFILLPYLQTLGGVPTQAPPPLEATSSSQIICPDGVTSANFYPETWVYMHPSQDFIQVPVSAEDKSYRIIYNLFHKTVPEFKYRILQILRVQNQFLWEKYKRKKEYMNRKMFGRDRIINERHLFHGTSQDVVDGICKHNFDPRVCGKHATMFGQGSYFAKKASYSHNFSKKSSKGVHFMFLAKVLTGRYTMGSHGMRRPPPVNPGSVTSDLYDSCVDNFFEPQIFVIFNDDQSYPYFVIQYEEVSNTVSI
Chain of PARP1 (P09874 whole entry): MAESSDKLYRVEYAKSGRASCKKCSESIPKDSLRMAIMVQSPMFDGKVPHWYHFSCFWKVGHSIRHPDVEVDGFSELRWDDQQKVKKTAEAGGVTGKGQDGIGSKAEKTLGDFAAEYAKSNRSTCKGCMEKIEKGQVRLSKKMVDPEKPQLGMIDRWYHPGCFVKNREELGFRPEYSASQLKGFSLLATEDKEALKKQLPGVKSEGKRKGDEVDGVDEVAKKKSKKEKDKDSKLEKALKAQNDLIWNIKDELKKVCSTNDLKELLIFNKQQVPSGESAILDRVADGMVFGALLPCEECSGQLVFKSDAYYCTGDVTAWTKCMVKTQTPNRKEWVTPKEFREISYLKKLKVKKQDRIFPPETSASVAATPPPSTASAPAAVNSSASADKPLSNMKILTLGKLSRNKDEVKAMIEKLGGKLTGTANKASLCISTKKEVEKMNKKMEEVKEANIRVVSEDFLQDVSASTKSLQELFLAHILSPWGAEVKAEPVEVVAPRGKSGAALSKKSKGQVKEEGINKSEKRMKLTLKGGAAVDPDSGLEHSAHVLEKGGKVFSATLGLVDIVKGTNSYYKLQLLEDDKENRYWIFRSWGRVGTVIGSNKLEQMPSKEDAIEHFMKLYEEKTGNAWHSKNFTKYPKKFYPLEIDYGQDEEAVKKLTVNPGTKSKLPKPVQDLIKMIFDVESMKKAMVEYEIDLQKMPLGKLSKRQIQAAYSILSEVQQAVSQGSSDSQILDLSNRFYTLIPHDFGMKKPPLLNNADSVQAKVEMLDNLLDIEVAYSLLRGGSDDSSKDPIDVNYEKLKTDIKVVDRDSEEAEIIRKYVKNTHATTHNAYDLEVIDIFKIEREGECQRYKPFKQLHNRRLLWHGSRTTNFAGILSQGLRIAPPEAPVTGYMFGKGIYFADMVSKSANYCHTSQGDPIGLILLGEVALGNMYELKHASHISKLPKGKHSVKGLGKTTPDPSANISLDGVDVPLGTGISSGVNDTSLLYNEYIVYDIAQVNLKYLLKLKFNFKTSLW

Row | Structure (SMILES) | pIC50 (NCI-H1373 cells) | pIC50 (PARP1) | pIC50 (PARP7) | further results
1 | CCO[C@H]1C[C@@H](CCC(=O)N2CCN(c3ncc(C(F)(F)F)cn3)CC2)N(c2cc(C(F)(F)F)c(=O)[nH]n2)C1 [Compound 36] | – | 7.84 | 8.42 | –
2 | O=C(CC[C@@H]1C[C@H](N2CCCC2)CN1c1cc(C(F)(F)F)c(=O)[nH]n1)N1CCN(c2ncc(C(F)(F)F)cn2)CC1 [Compound 38] | – | 7.44 | 8.30 | –
3 | C[C@H]1CC[C@@H](CCC(=O)N2CCN(c3ncc(C(F)(F)F)cn3)CC2)N1c1cc(C(F)(F)F)c(=O)[nH]n1 [Compound 39] | – | 7.22 | 8.10 | –
4 | N[C@H]1C[C@@H](CCC(=O)N2CCN(c3ncc(C(F)(F)F)cn3)CC2)N(c2cc(C(F)(F)F)c(=O)[nH]n2)C1 [Compound 42] | – | 8.22 | 7.43 | –
5 | O=C(CC[C@@H]1C[C@H](F)CN1c1cc(C(F)(F)F)c(=O)[nH]n1)N1CCN(c2ncc(C(F)(F)F)cn2)CC1 [Compound 43] | – | 8.40 | 8.40 | –
6 | CO[C@@H]1C[C@@H](CCC(=O)N2CCN(c3ncc(C(F)(F)F)cn3)CC2)N(c2cc(C(F)(F)F)c(=O)[nH]n2)C1 [Compound 44] | – | 7.74 | 8.15 | –
7 | O=C([C@@H]1C[C@H](Oc2ccccc2)CN1c1cc(C(F)(F)F)c(=O)[nH]n1)N1CCN(c2ncc(C(F)(F)F)cn2)CC1 [Compound 66] | – | 6.37 | 8.40 | –
8 | O=C([C@@H]1C[C@H](Oc2ccccc2F)CN1c1cc(C(F)(F)F)c(=O)[nH]n1)N1CCN(c2ncc(C(F)(F)F)cn2)CC1 [Compound 67] | – | 4.92 | 7.37 | –
9 | CO[C@@H]1C[C@@H](C(=O)N2CCN(c3ncc(C(F)(F)F)cn3)CC2)N(c2cc(C(F)(F)F)c(=O)[nH]n2)C1 [Compound 70] | 7.24 | – | – | –
10 | C[C@@H](COCCC(=O)N1CCN(c2ncc(C(F)(F)F)cn2)CC1)Nc1cn[nH]c(=O)c1C(F)(F)F [RBN-2397, reference compound] | – | – | – | CLint scaled at 1 μM [1]: 144 mL/min/kg; F ([2]; Oral gavage, oral bioavailability): 3.76%; AUC(0-inf) [2, 5]: 288 ng·h/mL; Cmax [2, 5]: 634 ng/mL; clearance [2, 5]: 58.1 mL/min/kg; half-life [2, 5]: 20.4 min; AUC(0-inf) [2, 6]: 11.5 ng·h/mL; Cmax [2, 6]: 5.55 ng/mL; CLint scaled at 1 μM [3]: 40.8 mL/min/kg; CLint scaled at 1 μM [4]: 88 mL/min/kg

Further lines, with some results ahead:

Row | pIC50 (NCI-H1373 cells) | Structure (SMILES) | pIC50 (PARP1) | pIC50 (PARP7) | further results
11 | 7.16 | O=C(CC[C@@H]1C[C@@H](Oc2cc(F)cc(F)c2)CN1c1cc(C(F)(F)F)c(=O)[nH]n1)N1CCN(c2ncc(C(F)(F)F)cn2)CC1 [Compound 51] | – | – | –
12 | 7.02 | O=C(CC[C@@H]1C[C@@H](c2ccccc2)CN1c1cc(C(F)(F)F)c(=O)[nH]n1)N1CCN(c2ncc(C(F)(F)F)cn2)CC1 [Compound 52] | – | – | –
13 | 7.91 | O=C(CC[C@@H]1C[C@@H](Oc2cncnc2)CN1c1cc(C(F)(F)F)c(=O)[nH]n1)N1CCN(c2ncc(C(F)(F)F)cn2)CC1 [Compound 63] | – | – | –
14 | 7.35 | CCO[C@@H]1C[C@@H](C(=O)N2CCN(c3ncc(C(F)(F)F)cn3)CC2)N(c2cc(C(F)(F)F)c(=O)[nH]n2)C1 [Compound 71] | – | – | –
